Activity calls are given as the source filed them. The rule behind the calls is not given here.
Assays:
[1] = Induction of nitric oxide release in 0.1 mM phosphate buffer solution at pH 7.4 assessed as nitrate/nitrite level after 150 mins by Griess assay; type: physicochemical; details: pH 7.4, 2.5 h
[2] = Induction of nitric oxide release in 0.1 mM phosphate buffer solution at pH 7.4 assessed as nitrate/nitrite level after 30 mins by Griess assay; type: physicochemical; details: pH 7.4, 0.5 h
[3] = Induction of nitric oxide release in 0.1 mM phosphate buffer solution at pH 7.4 assessed as nitrate/nitrite level after 100 mins by Griess assay; type: physicochemical; details: pH 7.4, 100 min
[4] = Induction of nitric oxide release in 0.1 mM phosphate buffer solution at pH 7.4 assessed as nitrate/nitrite level after 10 mins by Griess assay; type: physicochemical; details: pH 7.4, 10 min
[5] = Induction of nitric oxide release in 0.1 mM phosphate buffer solution at pH 7.4 assessed as nitrate/nitrite level after 60 mins by Griess assay; type: physicochemical; details: pH 7.4, 1 h
[6] = Induction of nitric oxide release in 0.1 mM phosphate buffer solution at pH 7.4 assessed as nitrate/nitrite level after 80 mins by Griess assay; type: physicochemical; details: pH 7.4, 80 min
[7] = Induction of nitric oxide release in 0.1 mM phosphate buffer solution at pH 7.4 assessed as nitrate/nitrite level after 120 mins by Griess assay; type: physicochemical; details: pH 7.4, 2 h
[8] = Induction of nitric oxide release in 0.1 mM phosphate buffer solution at pH 7.4 assessed as nitrate/nitrite level after 10 to 150 mins by Griess assay; type: physicochemical
Rattus norvegicus [9] = assay: Antihypertensive activity in spontaneously hypertensive rat assessed as reduction of diastolic arterial pressure at 40 mg/kg, po up to 24 hrs; type: functional, organism-based; parameters: dose 40 mg/kg; details: Artery
Rattus norvegicus [10] = assay: Antihypertensive activity in spontaneously hypertensive rat assessed as reduction of diastolic arterial pressure at 40 mg/kg, po after 6 to 12 hrs; type: functional, Artery; parameters: scale not given: the % may be the effect or the level left
Rattus norvegicus [11] = assay: Toxicity in spontaneously hypertensive rat assessed as change in heart rate at 80 mg/kg, po up to 24 hrs; type: organism-based; parameters: dose 80 mg/kg, route oral; details: in vivo
Rattus norvegicus [12] = assay: Antihypertensive activity in spontaneously hypertensive rat assessed as reduction of diastolic arterial pressure at 80 mg/kg, po after 6 to 12 hrs; type: functional, Artery; parameters: scale not given: the % may be the effect or the level left
Rattus norvegicus [13] = assay: Antihypertensive activity in spontaneously hypertensive rat assessed as reduction of mean artery pressure at 80 mg/kg, po up to 24 hrs; type: functional, organism-based; parameters: dose 80 mg/kg
Rattus norvegicus [14] = assay: Antihypertensive activity in spontaneously hypertensive rat assessed as reduction of blood pressure at 80 mg/kg, po up to 24 hrs; type: functional; parameters: scale not given: the % may be the effect or the level left

Structure (SMILES)	Activity [1]	Activity [2]	Activity [3]	Activity [4]	Activity [5]	Activity [6]	Activity [7]	Activity [8]	Activity (Rattus norvegicus [9])	Activity (Rattus norvegicus [10])	Activity (Rattus norvegicus [11])	Activity (Rattus norvegicus [12])	Activity (Rattus norvegicus [13])	Activity (Rattus norvegicus [14])
COc1cc2c(cc1OCC(=O)OCCO[N+](=O)[O-])COC(C)C2=O (centres undefined)	16.26 µmol/L	6.94 µmol/L	11.34 µmol/L	6.66 µmol/L	8.64 µmol/L	11.11 µmol/L	12.94 µmol/L	–	–	–	–	–	–	–
COc1cc2c(cc1O)C(=O)C(C)OC2 (centres undefined)	–	–	–	–	–	–	–	Not Active	–	–	–	–	–	–
COc1cc2c(cc1OCCO[N+](=O)[O-])COC(C)C2=O (centres undefined)	14.72 µmol/L	10.25 µmol/L	12.09 µmol/L	10.12 µmol/L	11.24 µmol/L	11.28 µmol/L	12.27 µmol/L	–	–	–	–	–	–	–
COc1cc2c(cc1OCCO[N+](=O)[O-])C(=O)C(C)OC2 (centres undefined)	10.06 µmol/L	5.84 µmol/L	7.56 µmol/L	5.56 µmol/L	6.04 µmol/L	6.52 µmol/L	8.1 µmol/L	–	–	–	–	–	–	–
COc1cc2c(cc1O)COC(C)C2=O (centres undefined)	–	–	–	–	–	–	–	Not Active	–	–	–	–	–	–
COc1cc2c(cc1OCC(=O)OCCO[N+](=O)[O-])C(=O)C(C)OC2 (centres undefined)	13.99 µmol/L	8.81 µmol/L	12.09 µmol/L	8.43 µmol/L	10.07 µmol/L	11.95 µmol/L	12.1 µmol/L	–	–	–	–	–	–	–
COc1ccc2c(c1OCC(=O)OCCCCO[N+](=O)[O-])COC(C)C2=O (centres undefined)	8.72 µmol/L	5.08 µmol/L	6.55 µmol/L	4.05 µmol/L	6.04 µmol/L	6.27 µmol/L	6.59 µmol/L	–	–	–	–	–	–	–
COc1ccc2c(c1OCCCO[N+](=O)[O-])COC(C)C2=O (centres undefined)	9.47 µmol/L	7.45 µmol/L	9.4 µmol/L	7.42 µmol/L	9.23 µmol/L	9.27 µmol/L	9.43 µmol/L	–	–	–	–	–	–	–
COc1ccc2c(c1OCCCCO[N+](=O)[O-])COC(C)C2=O (centres undefined)	4.02 µmol/L	2.46 µmol/L	4.03 µmol/L	2.19 µmol/L	3.02 µmol/L	3.84 µmol/L	4.01 µmol/L	–	–	–	–	–	–	–
COc1cc2c(cc1OCC(=O)OCCCCO[N+](=O)[O-])C(=O)C(C)OC2 (centres undefined)	10.81 µmol/L	6.01 µmol/L	8.9 µmol/L	5.73 µmol/L	7.13 µmol/L	8.69 µmol/L	9.02 µmol/L	–	–	–	–	–	–	–
COc1cc2c(cc1OCC(=O)OCCCCO[N+](=O)[O-])COC(C)C2=O (centres undefined)	14.92 µmol/L	7.45 µmol/L	11.67 µmol/L	7.42 µmol/L	8.72 µmol/L	11.7 µmol/L	11.69 µmol/L	–	–	–	–	–	–	–
COc1cc2c(cc1OCCCCO[N+](=O)[O-])C(=O)C(C)OC2 (centres undefined)	7.54 µmol/L	4.83 µmol/L	6.05 µmol/L	4.81 µmol/L	4.87 µmol/L	5.93 µmol/L	6.09 µmol/L	–	–	–	–	–	–	–
CC1OCc2c(ccc(O)c2O)C1=O (racemic)	–	–	–	–	–	–	–	–	Active	–	–	–	–	–
COc1cc2c(cc1OCC(=O)OCCCO[N+](=O)[O-])C(=O)C(C)OC2 (centres undefined)	8.72 µmol/L	5.76 µmol/L	8.23 µmol/L	5.65 µmol/L	6.29 µmol/L	7.77 µmol/L	8.6 µmol/L	–	–	–	–	–	–	–
C[C@H](CS)C(=O)N1CCC[C@H]1C(=O)O [CAPTOPRIL]	–	–	–	–	–	–	–	–	Active	>30%	–	–	–	–
COc1ccc2c(c1OCCO[N+](=O)[O-])COC(C)C2=O (centres undefined)	16.26 µmol/L	1.78 µmol/L	10.5 µmol/L	1.51 µmol/L	4.53 µmol/L	7.29 µmol/L	14.61 µmol/L	–	Active	–	Non-toxic	>30%	Active	40%
COc1cc2c(cc1OCCCO[N+](=O)[O-])COC(C)C2=O (centres undefined)	28.58 µmol/L	17.87 µmol/L	18.81 µmol/L	17.45 µmol/L	18.12 µmol/L	18.3 µmol/L	18.95 µmol/L	–	Active	–	Non-toxic	>30%	Active	40%
COc1cc2c(cc1OCCCCO[N+](=O)[O-])COC(C)C2=O (centres undefined)	12.99 µmol/L	5.17 µmol/L	8.31 µmol/L	4.81 µmol/L	7.72 µmol/L	7.85 µmol/L	8.68 µmol/L	–	–	–	–	–	–	–
COc1ccc2c(c1O)COC(C)C2=O (centres undefined)	–	–	–	–	–	–	–	Not Active	–	–	–	–	–	–
CC1OCc2cc(O)c(O)cc2C1=O (racemic)	–	–	–	–	–	–	–	–	Active	–	–	–	–	–
COc1cc2c(cc1OCCCO[N+](=O)[O-])C(=O)C(C)OC2 (centres undefined)	7.04 µmol/L	5.59 µmol/L	6.89 µmol/L	5.14 µmol/L	6.29 µmol/L	6.77 µmol/L	7.01 µmol/L	–	–	–	–	–	–	–
COc1ccc2c(c1OCC(=O)OCCCO[N+](=O)[O-])COC(C)C2=O (centres undefined)	4.86 µmol/L	1.19 µmol/L	3.95 µmol/L	0.84 µmol/L	2.27 µmol/L	3.84 µmol/L	4.01 µmol/L	–	–	–	–	–	–	–
COc1ccc2c(c1OCC(=O)OCCO[N+](=O)[O-])COC(C)C2=O (centres undefined)	16.68 µmol/L	10.84 µmol/L	13.35 µmol/L	10.62 µmol/L	13 µmol/L	13.12 µmol/L	13.27 µmol/L	–	Active	–	–	–	–	–
COc1cc2c(cc1OCC(=O)OCCCO[N+](=O)[O-])COC(C)C2=O (centres undefined)	20.62 µmol/L	10.41 µmol/L	14.61 µmol/L	10.37 µmol/L	11.91 µmol/L	14.7 µmol/L	17.61 µmol/L	–	Active	–	Non-toxic	>30%	Active	40%
